Here are results for four compounds from US20040126437A1, “Typing natural products” (priority 2000, published 2004).

SMILES strings stand for the structures. In brackets after ≈: the same amount, converted by molar mass.

In test [1] the test system is Staphylococcus aureus. The conditions noted are these: cited from earlier work.
The next test concerns T. cruzi trypomastigotes. Briefly: Effects against T. cruzi trypomastigotes cultures. Format: cell-based, Trypanosoma cruzi. The protocol:
FIG. 2 are recorded ID50 data related to trypomastigotes cultures (one of the growing stages of Trypanosoma cruzi (T.cruzi)) also to the compounds DCBEN, DHCA, E and mixture E+DPB and the effects of said compounds extracted from propolis trypomastigotes of T.cruzi (in mg/mL). […] The same result for Violet Crystal is 0.205 mg/mL, as previously mentioned. The results for insulated compounds are greater than the Violet Crystal.

Test [2] relates to Pseudomonas aeruginosa. To be noted: cited from earlier work.
The test system of another test is Mycobaterium phlei. The conditions noted are these: cited from earlier work.
In test [3] the test system is fibrosarcoma (line HT-1080). To be noted: fibrosarcoma line HT-1080; cited from earlier work.
The subject of the next test is Mycobacterium smegmatis. To be noted: cited from earlier work.
Test [4] concerns Thermoactinomyces intermedius. The conditions noted are these: cited from earlier work.
For test [5], the system named is Micrococcus lysodeikticus. The conditions noted are these: cited from earlier work.
In test [6] the test system is Staphylococcus epidermidis. To be noted: cited from earlier work.
Test [7] deals with Staphylococcus aureus. Briefly: Antibacterial activity, inhibition halos in culture. Format: cell-based. The conditions noted are these: Staphylococcus aureus culture. The source says:
(§1) The insulated compounds DCBEN, DHCA, E and mixture of E+DPB have their antibacterial properties tested in cultures of E.coli, Pseudomonas aeruginosa, Staphylococcus aureus and Streptococcus faecalis. Inhibition halos (in mm) and the obtained data recorded as in FIG. 1.
(§2) Antibacterial activity of the compounds K, G1, G2 e L2 has been evaluated in cultures of E.coli, Pseudomonas aeruginosa, Staphylococcus aureus and Streptococcus faecalis. Inhibition halos have been measured (mm) and the data recorded as in FIG. 1. S.aureus, S.faecalis e E.coli, are sensitive to the tested compounds, just varying the halos, the compound G2 has the most toxity in cultures of S.aureus e S.faecalis. None of the tested compounds had effect in P.aeruginosa.

The test system of a further test is Streptococcus faecalis. Described as above. Format: cell-based. The conditions noted are these: Streptococcus faecalis culture.
Source text: as §1, §2

For test [8], the system named is Pseudomonas aeruginosa. Described as above. Format: cell-based.
Source text: as §1, §2

The subject of a further test is Escherichia coli. Described as above. The conditions noted are these: for Antibacterial activty, inhibition halo: Escherichia coli culture. Format: cell-based.
Source text: as §1, §2

In another test the test system is Microsporeum gypseum. To be noted: cited from earlier work.
In test [9] the test system is uterus colon carcinoma (line L5-26). The conditions noted are these: uterus colon carcinoma line L5-26; cited from earlier work.
For a further test, the system named is B.subtilis. To be noted: cited from earlier work.
The test system of the next test is A.benhamiae. To be noted: cited from earlier work.
A further test has as its system Corynebacterium equii. The conditions noted are these: cited from earlier work.
For test [10], the system named is insulated cavy trachea (ICT). The conditions noted are these: ICT contracted with hystamine (1 μM), cited from earlier work.
For test [11] the following is noted: insulated labdan acids; cited from earlier work.

Turning to `CC(C)=CCc1cc(C=CC(=O)O)cc(CC=C(C)C)c1O` [DHCA, 3,5-diprenyl-4-hydroxycinnamic acid], the minimum inhibitory concentration (MIC) – broadly, the lowest concentration that inhibits growth of the organism – is 62.5 µg/mL (≈ 208 µM) in the test with Staphylococcus aureus [1]; 31.3 µg/mL (≈ 104 µM) in the test with Pseudomonas aeruginosa [2]; 62.5 µg/mL (≈ 208 µM) with Mycobaterium phlei; 31.3 µg/mL (≈ 104 µM) in the test with Mycobacterium smegmatis; 62.5 µg/mL (≈ 208 µM) in [4]; 7,8 μg/mL in the test on Microsporeum gypseum. In addition, the MIC with A.benhamiae is given as 15,6 μg/mL. This compound also had an ID50/24 h with T. cruzi trypomastigotes of 932 ± 46 µg/mL (≈ 3100 µM). Further, the “ED50 (cytotoxic dosage—50%)” value in test [3] is 45.47 µg/mL (≈ 151 µM); in test [9], 59,32 μg/mL. For the same compound, the CIM in test [5] is 31.3 µg/mL; in test [6], 62.5 µg/mL; in the test with B.subtilis, 31.3 µg/mL; in the test with Corynebacterium equii, 31.3 μg/m/L. In addition, the “Antibacterial activty, inhibition halo” value in the test with Staphylococcus aureus [7] was “+ (+ halo < or = to 8 mm)”; in the test on Streptococcus faecalis, “+ (+ halo < or = to 8 mm)”; with Pseudomonas aeruginosa [8], “Ø”; in the test on Escherichia coli, “Ø”. Further, the “Antibacterial effect in words” value in the test with Escherichia coli (E.coli culture) is on record as “did not present inhibition activity”.
Turning to `CC1(C)C=Cc2cc(C=CC(=O)O)ccc2O1` [DCBEN, 2,2-Dimethyl-6-carboxiethenyl-2H-1-benzopyran], the ID50/24 h with T. cruzi trypomastigotes turned out to be 1696 ± 32 µg/mL (≈ 7370 µM). For the same compound, the EC50 in test [10] (read-out: CE50 (the source's name)) was 250 nM. Also, the “Emax, tension” value in test [10] (relaxation) was 0.80 ± 0.05 g. Moreover, the “Antibacterial activty, inhibition halo” value with Staphylococcus aureus [7] was “++ (++ halo > or = to 8 mm and < 12 mm)”; in the test with Streptococcus faecalis, “++ (++ halo > or = to 8 mm and < 12 mm)”; with Pseudomonas aeruginosa [8] it was “Ø”; with Escherichia coli it was “+ (+ halo < or = to 8 mm)”.
As to `C=C1CC[C@@H]2[C@](C)(CCC[C@]2(C)C(=O)O)[C@H]1CC/C(C)=C/CO` [[b], isocupressic acid], the “Antibacterial activity by bioautography” value in test [11] is “most active”.
`C=C1CC[C@@H]2[C@](C)(CCC[C@]2(C)C(=O)O)[C@H]1CC[C@H](C)CCO` [[d], imbricatoloic acid]: the “Antibacterial activity by bioautography” value in test [11] was “most active”.
